# Assays:
# NET (h) = target: T1, NET (h) (Homo sapiens, UniProt P23975); test: Radioligand binding panel, NET (h) (antagonist radioligand); conditions: % inhibition of control specific binding
# T1 construct: Eurofins (contract panel)
# Experimental: (§1) Oxafuramine is tested at 10^−5 M, calculated as a % inhibition of control specific binding of a radioactively labeled ligand specific for each target.
# (§2) This binding profile panel was broadly defined with roughly an equal number of selective, central and peripheral therapeutically relevant targets, including native animal tissues, radioligands and specific enzymes involved in cell cycle regulation in accordance with Eurofins Standard Operating Procedure (www.eurofins.fr).
# (§3) For radioligand binding experiments, the half maximal inhibitory concentration (IC50) and the half maximal effective concentration (EC50) values were determined (via computer software) by nonlinear regression analysis of the competition curves using Hill equation curve fitting. The inhibition constants (Ki) were calculated using the Cheng-Prusoff equation (Ki=IC50/(1+(L/KD)), where L is the concentration of radioligand in the assay, and KD is the affinity of the radioligand for the receptor.
# (§4) The results are expressed as a % control specific binding ([measured specific binding/control specific binding]×100) and as a % inhibition of control specific binding (100−[(measured specific binding/control specific binding)×100]) obtained in the presence of the test compounds. […]
# M1 (h) = target: T2, M1 (h) (Homo sapiens, UniProt P11229); test: Radioligand binding panel, M1 (h) (antagonist radioligand); conditions: % inhibition of control specific binding
# T2 construct: Eurofins (contract panel)
# T2 sequence (P11229 1-460): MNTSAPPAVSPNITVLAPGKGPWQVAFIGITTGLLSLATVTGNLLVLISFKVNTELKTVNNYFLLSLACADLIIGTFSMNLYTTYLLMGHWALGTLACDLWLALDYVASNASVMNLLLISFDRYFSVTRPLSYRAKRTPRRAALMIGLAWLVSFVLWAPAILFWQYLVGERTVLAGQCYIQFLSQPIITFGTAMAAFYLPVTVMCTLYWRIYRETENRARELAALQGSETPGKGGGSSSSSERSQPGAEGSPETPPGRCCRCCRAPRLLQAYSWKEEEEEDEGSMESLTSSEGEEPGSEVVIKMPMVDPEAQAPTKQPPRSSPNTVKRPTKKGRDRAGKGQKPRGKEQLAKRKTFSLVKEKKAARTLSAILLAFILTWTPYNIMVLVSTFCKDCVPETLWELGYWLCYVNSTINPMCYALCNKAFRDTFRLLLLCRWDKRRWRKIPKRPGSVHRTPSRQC
# Experimental: as §1, §2, §3, §4
# T1 sequence (P23975 whole entry): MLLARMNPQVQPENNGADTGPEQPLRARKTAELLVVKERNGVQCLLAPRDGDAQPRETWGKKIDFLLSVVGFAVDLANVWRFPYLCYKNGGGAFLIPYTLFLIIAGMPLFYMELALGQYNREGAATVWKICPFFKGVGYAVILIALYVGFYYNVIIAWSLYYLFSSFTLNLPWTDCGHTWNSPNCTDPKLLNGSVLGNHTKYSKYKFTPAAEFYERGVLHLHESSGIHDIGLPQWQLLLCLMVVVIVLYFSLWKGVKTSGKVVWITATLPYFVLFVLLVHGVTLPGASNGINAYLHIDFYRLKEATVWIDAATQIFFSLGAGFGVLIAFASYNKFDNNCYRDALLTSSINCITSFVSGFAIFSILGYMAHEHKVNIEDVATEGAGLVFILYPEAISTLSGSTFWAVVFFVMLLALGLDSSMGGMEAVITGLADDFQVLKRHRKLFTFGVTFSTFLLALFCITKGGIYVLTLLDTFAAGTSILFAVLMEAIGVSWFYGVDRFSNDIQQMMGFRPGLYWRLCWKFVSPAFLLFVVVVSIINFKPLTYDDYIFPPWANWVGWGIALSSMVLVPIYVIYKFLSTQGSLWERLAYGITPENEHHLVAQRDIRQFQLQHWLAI
smiles,measurement,setting,value
"CCN[C@H](Cc1ccccc1)[C@H]1CCCO1 [Oxafuramine, (1R)—N-ethyl-1-[(2R)-oxolan-2-yl]-2-phenylethanamine]",inhibition at 10 µM,NET (h); 10^−5 M,53.3%
same,"% Inhibition at 10^−5M, NET (h) (antagonist radioligand)",NET (h),appreciable potencies
same,inhibition at 10 µM,M1 (h); 10^−5 M,~30%
same,"% Inhibition at 10^−5M, M1 (h) (antagonist radioligand)",M1 (h),29.7%
